Test results: the NIST ThermoML archive (doi:10.1016/j.jct.2013.08.016)
Numbers after ± are expanded uncertainties.

Key:
[1] = refractive index (Na D-line) (dimensionless); details: 101.33 kPa, Liquid, Standard Abbe refractometry
[2] = 101.3 kPa, Liquid, Capillary tube (Ostwald / Ubbelohde) method
[3] = refractive index (Na D-line) (dimensionless); mn = molality of the nth substance listed, in mol/kg; details: 101.3 kPa, Liquid, Standard Abbe refractometry, m2 = 0
[4] = mn = molality of the nth substance listed, in mol/kg; details: 101.3 kPa, Liquid, m2 = 0; for viscosity: Capillary tube (Ostwald / Ubbelohde) method; for mass density: Pycnometric method; for speed of sound: Single path-length method

| Structure (SMILES) | refractive index ([1]; 278.15 K) | refractive index ([1]; 288.15 K) | refractive index ([1]; 298.15 K) | viscosity ([2]; 278.15 K) | viscosity ([2]; 288.15 K) | viscosity ([2]; 298.15 K) | refractive index ([3]; 278.15 K) | refractive index ([3]; 288.15 K) | refractive index ([3]; 298.15 K) | viscosity ([4]; 278.15 K) | mass density ([4]; 278.15 K) | speed of sound ([4]; 278.15 K) | viscosity ([4]; 288.15 K) | viscosity ([4]; 298.15 K) |
| --- | --- | --- | --- | --- | --- | --- | --- | --- | --- | --- | --- | --- | --- | --- |
| O [water] | 1.3339 ± 0.0005 | 1.3334 ± 0.0005 | 1.3325 ± 0.0005 | 1.519 ± 0.032 mPa·s | 1.138 ± 0.025 mPa·s | 0.8903 ± 0.019 mPa·s |  |  |  |  |  |  |  |  |
| O [water] + O=C1O[C@H]([C@@H](O)CO)C(O)=C1O |  |  |  |  |  |  | 1.3339 ± 0.0005 | 1.3334 ± 0.0005 | 1.3325 ± 0.0005 | 1.519 ± 0.032 mPa·s | 999.96 ± 0.37 kg/m3 | 1426.2 ± 2.2 m/s | 1.138 ± 0.025 mPa·s | 0.8903 ± 0.019 mPa·s |
| O [water] + O=C1O[C@H]([C@@H](O)CO)C([O-])=C1O.[Na+] |  |  |  |  |  |  | 1.3339 ± 0.0005 | 1.3334 ± 0.0005 | 1.3325 ± 0.0005 | 1.519 ± 0.032 mPa·s | 999.96 ± 0.38 kg/m3 | 1426.2 ± 2.2 m/s | 1.138 ± 0.025 mPa·s | 0.8903 ± 0.019 mPa·s |
